# Data as given in patent US4975538A, “Antibiotic sulfonylaminocarbonyl activated beta-lactams” (The Upjohn Company, priority 1989, dated 1990).
# Assays:
# Assay in all cases: Minimum Inhibitory Concentration (MIC), agar dilution in Mueller Hinton Agar
# Type in all cases: cell-based
# [1] = test system: Streptococcus Pyogenes; settings: 20 h, culture number 152
# Description: (§1) The compounds of this invention and their respective pharmaceutically acceptable salts have antibiotic activity against a variety of gram-negative bacteria including Escherichia coli, Klebsiella pneumoniae, and Pseudomonas aeruginosa. The compounds are useful for treating bacterial infections in animals, including and most preferably humans. Compounds of the invention are tested for in vitro antimicrobial activity using standard testing procedures such as the determination of minimum inhibitory concentration (MIC) by methods described in "Methods for Dilution Antimicrobial Susceptibility Tests for Bacteria That Grow Aerobically" (M7-A) Published December 1985 by the National Committee for Clinical Laboratory Standards, 771 East Lancaster Avenue, Villanova, Pa. 19084. Briefly, MIC values are determined in unsupplemented Mueller Hinton Agar (MHA). The compounds tested are diluted serially into molten MHA at 47° C. The agar is poured into petri dishes and allowed to harden. The various bacteria used for testing are grown overnight on MHA at 35° C. and transferred to Tryptiease Soy Broth (TSB) until a turbidity of 0.5 McFarland standard is obtained. The bacteria are diluted one to twenty in TSB and inoculated on the plates (1 μl using a Steers replicator).
# [2] = test system: Escherichia Coli; settings: 20 h
# Description: as §1
# [3] = test system: Enterobacter Cloacae; settings: 20 h
# Description: as §1
# [4] = test system: Streptococcus Pneumoniae; settings: 20 h, culture number 41
# Description: as §1
# [5] = test system: Pseudomonas Aeruginosa; settings: 20 h
# Description: as §1
# [6] = test system: Staphylococcus epidermidis; settings: 20 h, culture number 30031
# Description: as §1
# [7] = test system: Klebsiella Pneumoniae; settings: 20 h, culture number 58
# Description: as §1
# [8] = test system: Staphylococcus Aureus; settings: 20 h
# Description: as §1
# [9] = test system: Citrobacter Freundli; settings: 20 h, culture number 3507
# Description: as §1
# [10] = test system: Klebsiella Oxytoca; settings: 20 h
# Description: as §1
# [11] = test system: Streptococcus Faecalis; settings: Enterococcus faecalis, 20 h; culture number 694
# Description: as §1
# [12] = test system: Serratia Marcescens; settings: 20 h, culture number 6888
# Description: as §1
# [13] = test system: Proteus Vulgaris; settings: 20 h, culture number 9679
# Description: as §1
MIC [1] [µg/mL],MIC ([2]; culture number 9379) [µg/mL],MIC ([2]; culture number 9380) [µg/mL],MIC ([2]; culture number 9451) [µg/mL],MIC ([3]; culture number 9381) [µg/mL],MIC ([3]; culture number 9382) [µg/mL],MIC [4] [µg/mL],MIC ([5]; culture number 231) [µg/mL],MIC ([5]; culture number 9191) [µg/mL],MIC [7] [µg/mL],MIC ([8]; culture number 3665) [µg/mL],MIC ([8]; culture number 6685) [µg/mL],MIC ([8]; culture number 9218) [µg/mL],MIC [9] [µg/mL],MIC ([10]; culture number 9383) [µg/mL],MIC ([10]; culture number 9384) [µg/mL],MIC [11] [µg/mL],MIC [12] [µg/mL],MIC [13] [µg/mL],SMILES,also measured
64,0.5,1,0.5,64,1,> 64,64,64,0.5,> 64,> 64,> 64,0.25,2,0.5,> 64,2,0.25,"Nc1nc(/C(=N/OCC(=O)O)C(=O)N[C@H]2CN(C(=O)NS(=O)(=O)N3CCN(NC(=O)c4[nH]ccc(=O)c4O)C3=O)C2=O)cs1 [Compound E40, Acetic acid, [[[1-(2-amino-4-thiazolyl)-2-[[1-[[[[3-[[(1,4-dihydro-3-hydroxy-4-oxo-2-pyridinyl)carbonyl]amino]-2-oxo-1-imidazolidinyl]sulfonyl]-amino]carbonyl]-2-oxo-3-azetidinyl]amino]-2-oxoethylidene]amino]oxy]-, [S-(Z)]-]",MIC [6]: > 64 µg/mL; MIC ([8]; culture number 9213): > 64 µg/mL
4,0.25,0.25,0.5,> 64,1,> 64,4,8,0.5,> 64,> 64,> 64,0.5,8,0.5,> 64,0.5,0.06,"CC(C)(O/N=C(\C(=O)N[C@H]1CN(C(=O)NS(=O)(=O)N2CCN(NC(=O)c3cccc(=O)n3O)C2=O)C1=O)c1csc(N)n1)C(=O)O [E42 (c), Propanoic acid, 2-[[[1-(2-amino-4-thiazolyl)-2[[1-[[[[3-[[(1,6-dihydro-1-hydroxy-2-oxo-6-pyridinyl)carbonyl]amino]-2-oxo-1-imidazolidinyl]sulfonyl]amino]carbonyl]-2-oxo-3-azetidinyl]-amino]-2-oxoethylidene]amino]oxy]-2-methyl-, [S-(Z)]-]",
4,0.25,0.25,0.125,64,0.5,64,1,1,0.25,> 64,> 64,> 64,0.25,4,0.25,> 64,0.5,0.03,"CC(C)(O/N=C(\C(=O)N[C@H]1CN(C(=O)NS(=O)(=O)N2CCN(NC(=O)c3ccn(O)c(=O)c3)C2=O)C1=O)c1csc(N)n1)C(=O)O [E42 (d), Propanoic acid, 2-[[[1-(2-amino-4-thiazolyl)-2-[[1-[[[[3-[[(1,2-dihydro-1-hydroxy-2-oxo-4-pyridinyl)carbonyl]amino]2-oxo-1-imidazolidinyl]sulfonyl]amino]carbonyl]-2-oxo-3-azetidinyl]amino]-2-oxoethylidene]amino]oxy]-2-methyl-, [S-(Z)]-]",
